Results on 8 compounds are retold here after PubChem BioAssay (NCI).

What all share (assay): growth of human tumour cells (NCI), 48 h
For experiment [1], the system named is A498 renal.
Experiment [2] has as its system CCRF-CEM leukemia.
Experiment [3] has as its system COLO 205 colon.
Experiment [4] concerns HCT-15 colon.
The subject of experiment [5] is KM12 colon.
Experiment [6] concerns M14 melanoma.
Experiment [7] deals with MALME-3M melanoma.
Experiment [8] concerns MDA-MB-231 breast.
Experiment [9] concerns MDA-N.
For experiment [10], the system named is NCI-H460 lung.
The test system of experiment [11] is NCI-H522 lung.
In experiment [12] the test system is NCI/ADR-RES ovarian.
Experiment [13] concerns OVCAR-5 ovarian.
For experiment [14], the system named is RPMI-8226 leukemia.
Experiment [15] deals with SF-539 CNS.
For experiment [16], the system named is SR leukemia.
Experiment [17] has as its system T-47D breast.
Experiment [18] deals with UACC-62 melanoma.
The test system of experiment [19] is PC-3 prostate.
For experiment [20], the system named is DU-145 prostate.

Each structure is given as a SMILES string.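 Protocol summary: plate cells (96-well), add compound at 5 concentrations, incubate 48 h, interpolate endpoints linearly. TGI denotes the concentration required for complete inhibition of growth.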

`CC(=O)O[C@H]1C(=O)[C@@]2(C)[C@H]([C@H](OC(=O)c3cccc(C(F)(F)F)c3)[C@]3(O)C[C@H](OC(=O)[C@H](O)[C@@H](NC(=O)c4ccccc4)c4ccccc4)C(C)=C1C3(C)C)[C@]1(OC(C)=O)CO[C@@H]1C[C@@H]2O`: the TGI in experiment [1] was > 13.6 µM; in experiment [2] it was 0.368 µM; in experiment [3] it was 3.27 µM; in experiment [4], > 25 µM; in [5] it was 24.8 µM; in [6] it was 11.9 µM. For the same compound, the TGI in [7] was 10.5 µM; in [8], > 13.1 µM; in [9] it was < 0.0025 µM; in [10] it was > 10.6 µM; in experiment [11] it was 0.0175 µM; in [12] it was > 7.02 µM. For the same compound, the TGI in experiment [13] is > 10.7 µM; in experiment [14] it was 0.0862 µM; in experiment [15], 0.0105 µM; in [16] it was 3.72 µM; in experiment [17] it was > 25 µM; in experiment [18] it was 8 µM.
With `c1ccc(N=C(Nc2ccccc2)N2CCCCC2)cc1`, the TGI is > 100 µM in experiment [2]; > 100 µM in experiment [3]; > 100 µM in [4]; > 100 µM in [5]; 84.9 µM in experiment [6]; > 100 µM in experiment [7]. Further, the TGI in experiment [9], in experiment [10], in experiment [11], in [12], in [13] and in [19] was > 100 µM each time. Moreover, the TGI in [14], in experiment [16], in [17] and in experiment [18] was > 100 µM in each case.
On to `Oc1ccccc1/C=N/Nc1nc(N/N=C/c2ccccc2O)nc(N/N=C/c2ccccc2O)n1`, for which the TGI in experiment [1], in experiment [3], in [20], in experiment [4], in experiment [5] and in experiment [6] was > 100 µM throughout. For the same compound, the TGI in experiment [7], in experiment [8], in [9], in [10], in experiment [11] and in [12] was > 100 µM in each case. In addition, the TGI in experiment [13], in experiment [19], in [15], in [16], in experiment [17] and in experiment [18] was > 100 µM in each case.
Consider `COC1CC(OC2C(C)OC(OC3C(C)OC(OC4C(O)CC(O[C@H]5CC[C@@]6(C)C(=CC[C@]7(O)[C@@H]6C[C@@H](OC(=O)/C=C/c6ccccc6)[C@@]6(C)[C@]7(O)CC[C@@]6(O)C(C)=O)C5)OC4C)CC3OC)CC2OC)OC(C)C1O` (some centres not stated), for which the TGI in experiment [2], in [3], in experiment [20], in experiment [4], in [5] and in experiment [6] was > 6.25 µM in each case. Further, the TGI in experiment [7], in experiment [8], in experiment [9], in experiment [11], in experiment [12] and in experiment [13] was > 6.25 µM throughout. The TGI in [19], in [14], in experiment [15], in experiment [16], in experiment [17] and in experiment [18] was > 6.25 µM throughout.
As for `NNC(=O)c1ccccc1NC(=O)/C(=C/c1ccccc1O)NC(=O)c1ccccc1`, the TGI in [1], in experiment [2], in experiment [3], in [20], in [4] and in experiment [5] was > 100 µM in each case. The TGI is > 100 µM in [6]; > 100 µM in [7]; > 100 µM in experiment [8]; > 100 µM in experiment [9]; > 100 µM in experiment [10]; 47.4 µM in experiment [11]. Besides, the TGI in [12] is 50.8 µM; in experiment [13], > 100 µM; in experiment [14] it was > 100 µM; in experiment [15], 92.4 µM; in [16], > 100 µM; in [17], > 100 µM. For the same compound, in experiment [18], the TGI is > 100 µM.
As for `CC(=O)Nc1ccc(NC(=O)c2c(Cl)c(Cl)c(Cl)c(Cl)c2-c2nc3ccccc3[nH]2)cc1`, the TGI in experiment [1] is > 100 µM; in [2], > 100 µM; in experiment [3] it was 39.8 µM; in [20] it was > 100 µM; in [4], > 100 µM; in experiment [5], > 100 µM. The TGI in [6], in [7], in experiment [9], in [10], in experiment [11] and in experiment [13] was > 100 µM each time. In addition, the TGI is > 100 µM in experiment [19]; 71 µM in experiment [14]; > 100 µM in experiment [15]; > 100 µM in experiment [16]; > 100 µM in experiment [17]; > 100 µM in experiment [18].
Consider `Cc1ccc(NN=NCCCCN)cc1`, for which the TGI in experiment [1], in [2], in [3], in [20], in experiment [4] and in experiment [5] was > 100 µM each time. Besides, the TGI in [6], in experiment [7], in experiment [8], in experiment [9], in experiment [11] and in experiment [12] was > 100 µM throughout. Moreover, the TGI in experiment [13], in experiment [14], in experiment [15], in [16], in [17] and in experiment [18] was > 100 µM in each case.
Take `O=S1CCS(=O)CCS(=O)CC1` (configuration not stated): the TGI in [2], in experiment [3], in experiment [20], in [4], in [5] and in experiment [6] was > 100 µM in each case. Further, the TGI in [8], in experiment [9], in [10], in [11], in experiment [12] and in experiment [13] was > 100 µM throughout. Further, the TGI in experiment [19], in experiment [15], in experiment [16], in experiment [17] and in experiment [18] was > 100 µM in each case.
